Results from patent US9206173B2, “Heterocyclic compounds for the treatment of stress-related conditions” (OTSUKA PHARMACEUTICAL CO., LTD., priority 2009, dated 2015).
pKi: −log10 of the molar value. Structures can show the parent of a compound that is named as a salt.

Molecular target: human GPR10 (Homo sapiens (Human), UniProt P49683)
Experiment: Inhibitory activity on binding of [3H]-PrRP to GPR10 (HEK 293 cell membrane fraction)
Details: [3H]-PrRP 1 nM, human GPR10-expressing HEK 293 cell membrane fraction; Ki from IC50 by Cheng-Prussoff formula
Protocol: Inhibitory Activity on Binding of [^3H]-PrRP to GPR10
Human GPR10 receptor expressing human embryonic kidney cells, HEK 293 cells, were cultured in Dulbecco's Modified Eagle's medium supplemented with 10% fetal bovine serum and 1% penicilline-streptmycin at 37° C., in 5% carbon dioxide gas conditions. The medium was removed and the cells were recovered in a phosphate buffer to prepare a cell suspension. The cell suspension was homogenated on ice by an ultrasonic cell homogenizer (Microson™ type XL200) and centrifuged at 40,000 g for 10 minutes at 4° C. After the supernatant was discarded, Buffer A (20 mM HEPES, 10 mM EDTA, 1 μl/ml protease inhibiting cocktail, pH 7.4) was added to the pellet. The pellet was suspended by the ultrasonic cell homogenizer, then the suspension was centrifuged at 40,000 g, for 10 minutes at 4° C. After this operation was repeated once again, the supernatant was discarded, Buffer B (20 mM HEPES, 0.1 mM EDTA, pH 7.4) was added to the pellet, and the pellet was suspended by the ultrasonic homogenizer. This was stored at a freezer of −80° C. as a cell membrane fraction until use in a binding test.
To each well of a 96-well plate, 150 μl of assay buffer (20 mM HEPES, 10 mM EDTA, 1 μl/ml protease inhibiting agent cocktail, pH 7.4), 20 μl of cell membrane fraction, 10 μl of test compound and [^3H]-PrRP (final concentration 1 nM) were added and incubated at room temperature for 90 minutes. After completion of the reaction, using a cell harvester, the cell-membrane fraction sample product was filtered under aspiration by a glass fiber filter plate (Unifilter; GF/B) previously treated with 0.5% polyethylene imine. The filter was washed with a 50 mM Tris hydrochloric acid buffer (pH 7.4) three times. After the filter was dried in a dryer (50° C.) for about 3 hours, 40 μl of liquid scintillation cocktail (MicroScint-O) was added to each well and radio activity was measured by a scintillation counter (Packard Topcount). The radio activity in the presence of an excessive amount of non-labeled PrRP (final concentration: 100 nM) was regarded as non-specific binding.
The binding inhibition rate was calculated based on calculating formula: 100−(radio activity when a compound is added−radio activity of non-specific binding)÷(radio activity when a solvent is added−radio activity of non-specific binding)×100.
An IC50 value was calculated based on the concentration dependent reaction using a non-linear analysis program and a Ki value was calculated using Cheng-Prussoff formula.

Sequence of human GPR10 (P49683 whole entry): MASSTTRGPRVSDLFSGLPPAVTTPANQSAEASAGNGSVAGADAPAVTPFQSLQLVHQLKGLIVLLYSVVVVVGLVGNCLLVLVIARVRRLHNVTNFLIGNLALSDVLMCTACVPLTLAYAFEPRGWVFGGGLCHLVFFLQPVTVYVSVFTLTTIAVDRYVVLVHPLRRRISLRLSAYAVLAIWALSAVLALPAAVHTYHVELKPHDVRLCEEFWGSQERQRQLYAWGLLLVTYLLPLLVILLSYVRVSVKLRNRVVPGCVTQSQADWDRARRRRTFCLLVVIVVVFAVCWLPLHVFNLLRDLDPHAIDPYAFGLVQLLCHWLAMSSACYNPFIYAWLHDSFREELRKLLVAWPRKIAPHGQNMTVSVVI

| SMILES | pKi |
| --- | --- |
| COn1c(N[C@@H](C)c2ccc(C(F)(F)F)cc2)nc2c(c1=O)CN(C(=O)c1cc3cccnc3s1)CC2 [Example 2415, 3-methoxy-6-(thieno[2,3-b]pyridine-2-carbonyl)-2-[(S)-1-(4-trifluoromethylphenyl)ethylamino]-5,6,7,8-tetrahydro-3H-pyrido[4,3-d]pyrimidin-4-one] | 8.05 |
| CC(C)COn1c(N[C@@H](C)c2ccc(C(F)(F)F)cc2)nc2c(c1=O)CN(C(=O)c1ccc(C#N)cc1F)CC2 [Example 2416, 3-fluoro-4-{3-isobutoxy-4-oxo-2-[(S)-1-(4-trifluoromethylphenyl)ethylamino]-3,5,7,8-tetrahydro-4H-pyrido[4,3-d]pyrimidine-6-carbonyl}benzonitrile] | 7.48 |
| C#CCCn1c(N[C@@H](C)c2ccc(C(F)(F)F)cc2)nc2c(c1=O)CN(C(=O)c1ccc(-n3ccnc3)cc1)CC2 [Example 2434, 3-(3-butynyl)-6-(4-imidazol-1-ylbenzoyl)-2-[(S)-1-(4-trifluoromethylphenyl)ethylamino]-5,6,7,8-tetrahydro-3H-pyrido[4,3-d]pyrimidin-4-one] | 8.05 |
| C#CCCn1c(N[C@@H](C)c2ccc(C(F)(F)F)cc2)nc2c(c1=O)CN(C(=O)c1ccc(-c3cnco3)cc1)CC2 [Example 2438, 3-(3-butynyl)-6-(4-oxazol-5-ylbenzoyl)-2-[(S)-1-(4-trifluoromethylphenyl)ethylamino]-5,6,7,8-tetrahydro-3H-pyrido[4,3-d]pyrimidin-4-one] | 7.59 |
| C[C@H](Nc1nc2c(c(=O)n1N(C)C)CN(C(=O)COc1ccc(Cl)cc1)CC2)c1ccc(C(F)(F)F)cc1 [Example 2442, 6-[2-(4-chlorophenoxy)acetyl]-3-dimethylamino-2-[(S)-1-(4-trifluoromethylphenyl)ethylamino]-5,6,7,8-tetrahydro-3H-pyrido[4,3-d]pyrimidin-4-one hydrochloride] | 6.85 |
| C#CCCn1c(N[C@@H](C)c2ccc(C(F)(F)F)cc2)nc2c(c1=O)CN(C(=O)c1ccc(C)cc1)CC2 [Example 2443, 3-(3-butynyl)-6-(4-methylbenzoyl)-2-[(S)-1-(4-trifluoromethylphenyl)ethylamino]-5,6,7,8-tetrahydro-3H-pyrido[4,3-d]pyrimidin-4-one] | 7.39 |
| CC#CCn1c(N[C@@H](C)c2ccc(C(F)(F)F)cc2)nc2c(c1=O)CN(C(=O)c1ccc3c(c1)OCO3)CC2 [Example 2444, 6-(benzo[1,3]dioxole-5-carbonyl)-3-(2-butynyl)-2-[(S)-1-(4-trifluoromethylphenyl)ethylamino]-5,6,7,8-tetrahydro-3H-pyrido[4,3-d]pyrimidin-4-one] | 7.38 |
| CC#CCn1c(N[C@@H](C)c2ccc(C(F)(F)F)cc2)nc2c(c1=O)CN(C(=O)c1ccc(OC)cc1)CC2 [Example 2448, 3-(2-butynyl)-6-(4-methoxybenzoyl)-2-[(S)-1-(4-trifluoromethylphenyl)ethylamino]-5,6,7,8-tetrahydro-3H-pyrido[4,3-d]pyrimidin-4-one] | 7.64 |
| C=Cc1ccc(C(=O)N2CCc3nc(N[C@@H](C)c4ccc(C(F)(F)F)cc4)n(OC)c(=O)c3C2)cc1 [Example 2456, 3-methoxy-2-[(S)-1-(4-trifluoromethylphenyl)ethylamino]-6-(4-vinylbenzoyl)-5,6,7,8-tetrahydro-3H-pyrido[4,3-d]pyrimidin-4-one] | 8.22 |
| COn1c(N[C@@H](C)c2ccc(C(F)(F)F)cc2)nc2c(c1=O)CN(C(=O)c1ccc(C)c(F)c1)CC2 [Example 2457, 6-(3-fluoro-4-methylbenzoyl)-3-methoxy-2-[(S)-1-(4-trifluoromethylphenyl)ethylamino]-5,6,7,8-tetrahydro-3H-pyrido[4,3-d]pyrimidin-4-one] | 8.10 |
| COn1c(N[C@@H](C)c2ccc(C(F)(F)F)cc2)nc2c(c1=O)CN(C(=O)c1ccc3c(c1)OCCO3)CC2 [Example 2459, 6-(2,3-dihydrobenzo[1,4]dioxine-6-carbonyl)-3-methoxy-2-[(S)-1-(4-trifluoromethylphenyl)ethylamino]-5,6,7,8-tetrahydro-3H-pyrido[4,3-d]pyrimidin-4-one] | 8.00 |
| COc1ccc2oc(C(=O)N3CCc4nc(N[C@@H](C)c5ccc(C(F)(F)F)cc5)n(OC)c(=O)c4C3)cc2c1 [Example 2460, 3-methoxy-6-(5-methoxybenzofuran-2-carbonyl)-2-[(S)-1-(4-trifluoromethylphenyl)ethylamino]-5,6,7,8-tetrahydro-3H-pyrido[4,3-d]pyrimidin-4-one] | 7.85 |
| COn1c(NCc2ccc(Cl)cc2)nc2c(c1=O)CN(C(=O)c1ccc(Cl)cc1)CC2 [Example 2462, 6-(4-chlorobenzoyl)-2-(4-chlorobenzylamino)-3-methoxy-5,6,7,8-tetrahydro-3H-pyrido[4,3-d]pyrimidin-4-one hydrochloride] | 7.01 |
| COn1c(N[C@@H](C)C2CCCCC2)nc2c(c1=O)CN(C(=O)c1ccc(C#N)cc1F)CC2 [Example 2469, 4-[2-((S)-1-cyclohexylethylamino)-3-methoxy-4-oxo-3,5,7,8-tetrahydro-4H-pyrido[4,3-d]pyrimidine-6-carbonyl]-3-fluorobenzonitrile] | 7.25 |
| COn1c(N[C@@H](C)C2CCCCC2)nc2c(c1=O)CN(C(=O)c1ccc(Cl)cc1)CC2 [Example 2470, 6-(4-chlorobenzoyl)-2-((S)-1-cyclohexyl-ethylamino)-3-methoxy-5,6,7,8-tetrahydro-3H-pyrido[4,3-d]pyrimidin-4-one] | 6.97 |
| COn1c(N[C@@H](C)c2ccc(C(F)(F)F)cc2)nc2c(c1=O)CN(C(=O)c1cc3ccccc3s1)CC2 [Example 2474, 6-(benzo[b]thiophene-2-carbonyl)-3-methoxy-2-[(S)-1-(4-trifluoromethylphenyl)ethylamino]-5,6,7,8-tetrahydro-3H-pyrido[4,3-d]pyrimidin-4-one] | 7.82 |

Continued, values first:

| pKi | SMILES |
| --- | --- |
| 7.39 | CC#CCn1c(N[C@@H](C)c2ccc(C(F)(F)F)cc2)nc2c(c1=O)CN(C(=O)c1ccc(C)c(C)c1)CC2 [Example 2447, 3-(2-butynyl)-6-(3,4-dimethylbenzoyl)-2-[(S)-1-(4-trifluoromethylphenyl)ethylamino]-5,6,7,8-tetrahydro-3H-pyrido[4,3-d]pyrimidin-4-one] |
| 6.92 | COn1c(NC(CCC(F)(F)F)c2ccc(Cl)cc2)nc2c(c1=O)CN(C(=O)c1ccc(Cl)cc1)CC2 (centres unmarked) [Example 2450, 6-(4-chlorobenzoyl)-2-[1-(4-chlorophenyl)-4,4,4-trifluorobutylamino]-3-methoxy-5,6,7,8-tetrahydro-3H-pyrido[4,3-d]pyrimidin-4-one] |
| 7.32 | COn1c(N[C@@H](C)c2ccc(C(F)(F)F)cc2)nc2c(c1=O)CN(C(=O)c1ccc(Cl)o1)CC2 [Example 2454, 6-(5-chloro-furan-2-carbonyl)-3-methoxy-2-[(S)-1-(4-trifluoromethylphenyl)ethylamino]-5,6,7,8-tetrahydro-3H-pyrido[4,3-d]pyrimidin-4-one] |
| 6.61 | C#CCCn1c(N[C@@H](C)c2ccc(C(F)(F)F)cc2)nc2c(c1=O)CN(C(=O)c1nc3ccccc3[nH]1)CC2 [Example 2458, 6-(1H-benzoimidazole-2-carbonyl)-3-(3-butynyl)-2-[(S)-1-(4-trifluoromethylphenyl)ethylamino]-5,6,7,8-tetrahydro-3H-pyrido[4,3-d]pyrimidin-4-one] |
| 7.70 | COn1c(N[C@@H](C)c2ccc(C(F)(F)F)cc2)nc2c(c1=O)CN(C(=O)c1cc(-c3cccs3)n(C)n1)CC2 [Example 2464, 3-methoxy-6-(1-methyl-5-thiophen-2-yl-1H-pyrazole-3-carbonyl)-2-[(S)-1-(4-trifluoromethylphenyl)ethylamino]-5,6,7,8-tetrahydro-3H-pyrido[4,3-d]pyrimidin-4-one] |
| 8.00 | COn1c(N[C@@H](C)c2ccc(C(F)(F)F)cc2)nc2c(c1=O)CN(C(=O)c1cc3occc3n1C)CC2 [Example 2465, 3-methoxy-6-(4-methyl-4H-furo[3,2-b]pyrrole-5-carbonyl)-2-[(S)-1-(4-trifluoromethylphenyl)ethylamino]-5,6,7,8-tetrahydro-3H-pyrido[4,3-d]pyrimidin-4-one] |
| 8.22 | COn1c(N[C@@H](C)c2ccc(C(F)(F)F)cc2)nc2c(c1=O)CN(C(=O)COc1ccc(C#N)cc1)CC2 [Example 2468, 4-(2-{3-methoxy-4-oxo-2-[(S)-1-(4-trifluoromethylphenyl)ethylamino]-3,5,7,8-tetrahydro-4H-pyrido[4,3-d]pyrimidin-6-yl}-2-oxo-ethoxy)benzonitrile] |
